In PubChem BioAssay AID330 (DTP/NCI, 2004):
Several values for one entry are separate records, joined by “and”; a condition that tells them apart may be missing. Equal entries are not always repeated. Inconclusive results and toxic doses are left out. The calls were made as follows: active = survival T/C of 150% or more; inactive = T/C below 125% in these data.

System: P388 leukemia ip, CD2F1 mice, survival T/C
Assay: NCI In Vivo Anticancer Drug Screen. Data for tumor model P388 Leukemia (intraperitoneal) in CD2F1 (CDF1) mice
Details: endpoint: median survival time, higher = longer survival
How it was run: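 Mice carrying the transplanted tumor received test compound or vehicle. Survival was recorded in each group, and the value is the treated-group measurement divided by that of the vehicle-treated control group.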

[1] = dose: 100.0 mg/kg/injection, schedule: Q01DX001 (ip), vehicle: saline with Tween-80
[2] = dose: 200.0 mg/kg/injection, schedule: Q01DX001 (ip), vehicle: saline with Tween-80
[3] = dose: 400.0 mg/kg/injection, schedule: Q01DX001 (ip), vehicle: saline with Tween-80
[4] = dose: 50.0 mg/kg/injection, schedule: Q01DX005 (ip), vehicle: saline with Tween-80
[5] = dose: 100.0 mg/kg/injection, schedule: Q01DX005 (ip), vehicle: saline with Tween-80
[6] = dose: 200.0 mg/kg/injection, schedule: Q01DX005 (ip), vehicle: saline with Tween-80
[7] = dose: 60.0 mg/kg/injection, schedule: Q01DX005 (ip), vehicle: saline with Tween-80
[8] = dose: 120.0 mg/kg/injection, schedule: Q01DX005 (ip), vehicle: saline with Tween-80
[9] = dose: 50.0 mg/kg/injection, schedule: Q01DX005 (ip), vehicle: Klucel (hydroxypropylcellulose) (HPC)
[10] = dose: 100.0 mg/kg/injection, schedule: Q01DX005 (ip), vehicle: Klucel (hydroxypropylcellulose) (HPC)
[11] = dose: 200.0 mg/kg/injection, schedule: Q01DX005 (ip), vehicle: Klucel (hydroxypropylcellulose) (HPC)

Measured: T/C

Cc1cc(Cl)ccc1NC(=O)/C(Cl)=C1/Sc2ccccc2NC1=O
inactive: [1] 105 % of control | [2] 97 % of control | [3] 97 % of control

O=NN(C(=O)NC1CCCC1)C1CCCC1
inactive: dose: 25.0 mg/kg/injection, schedule: Q01DX001 (ip), vehicle: distilled water + Tween-80 106 % of control | dose: 50.0 mg/kg/injection, schedule: Q01DX001 (ip), vehicle: distilled water + Tween-80 105 % of control | dose: 100.0 mg/kg/injection, schedule: Q01DX001 (ip), vehicle: distilled water + Tween-80 108 % of control | dose: 200.0 mg/kg/injection, schedule: Q01DX001 (ip), vehicle: distilled water + Tween-80 110 % of control | dose: 400.0 mg/kg/injection, schedule: Q01DX001 (ip), vehicle: distilled water + Tween-80 110 % of control

C/C([O-])=c1\c(C)nn2ccc[n+]12
inactive: dose: 25.0 mg/kg/injection, schedule: Q01DX005 (ip), vehicle: saline with Tween-80 100 % of control | [4] 108 % of control | [5] 96 % of control | [6] 99 % of control

CCN(CC)c1ccc2cc(S(=O)(=O)c3ccccc3)c(=O)oc2c1
inactive: [7] 91 % of control | [8] 86 % of control

COC(=O)CCC1=C(C)c2cc3[nH]c(cc4[nH]c(cc5nc(cc1n2)C(CCC(=O)OC)=C5C)c(C1CC1C(=O)OC)c4C)c(C1CC1C(=O)OC)c3C (configuration not stated)
inactive: [9] 104 % of control | [10] 104 % of control | [11] 109 % of control

NC(CS(=O)(=O)NO)C(=O)O (configuration not stated)
inactive: dose: 60.0 mg/kg/injection, schedule: Q01DX009 (ip), vehicle: saline with Tween-80 97 % of control | dose: 120.0 mg/kg/injection, schedule: Q01DX009 (ip), vehicle: saline with Tween-80 113 % of control | dose: 240.0 mg/kg/injection, schedule: Q01DX009 (ip), vehicle: saline with Tween-80 119 % of control

Oc1c(Cl)c(Cl)c2ncccc2c1Cl
inactive: [4] 102 % of control | [5] 107 % of control | [6] 110 % of control

Cc1ccc(O)c(CN2CCN(Cc3cc(C)ccc3O)CC2)c1
inactive: dose: 60.0 mg/kg/injection, schedule: Q01DX005 (ip), vehicle: Klucel (hydroxypropylcellulose) (HPC) 86 % of control | dose: 120.0 mg/kg/injection, schedule: Q01DX005 (ip), vehicle: Klucel (hydroxypropylcellulose) (HPC) 91 % of control | dose: 240.0 mg/kg/injection, schedule: Q01DX005 (ip), vehicle: Klucel (hydroxypropylcellulose) (HPC) 88 % of control

C=C1C(=O)OC2/C=C(\C)CC/C=C(/C=O)C(OC(=O)C(C)C)C(O)C12 (configuration not stated)
inactive: dose: 8.0 mg/kg/injection, schedule: Q01DX009 (ip), vehicle: saline + alcohol 97 % of control

Cc1cccc([B-]23OCC[N+]2(CNC(=O)c2ccccc2O)CCO3)c1 (configuration not stated)
inactive: [9] 105 % of control | [10] 104 % of control | [11] 104 % of control

N#CC(=O)Nc1ccc(F)cc1
inactive: dose: 3.75 mg/kg/injection, schedule: Q01DX005 (ip), vehicle: saline with Tween-80 102 % of control | dose: 7.5 mg/kg/injection, schedule: Q01DX005 (ip), vehicle: saline with Tween-80 94 % of control | dose: 15.0 mg/kg/injection, schedule: Q01DX005 (ip), vehicle: saline with Tween-80 100 % of control and 107 % of control

CC(=O)OCC1OC(n2nc(-c3ccccc3)c(=O)n(-c3ccccc3)c2=O)C(OC(C)=O)C(OC(C)=O)C1OC(C)=O (configuration not stated)
inactive: dose: 100.0 mg/kg/injection, schedule: Q04DX003 (ip), vehicle: saline with Tween-80 110 % of control | dose: 200.0 mg/kg/injection, schedule: Q04DX003 (ip), vehicle: saline with Tween-80 111 % of control

CC1=C(CO)C(=O)O[C@@H]([C@@H](C)[C@H]2CC[C@H]3[C@@H]4C[C@H]5O[C@]56[C@@H](O)C=CC(=O)[C@]6(C)[C@H]4CC[C@]23C)C1
inactive: dose: 2.5 mg/kg/injection, schedule: Q04DX003 (ip), vehicle: saline 102 % of control and 103 % of control | dose: 5.0 mg/kg/injection, schedule: Q04DX003 (ip), vehicle: saline 100 % of control and 103 % of control | dose: 10.0 mg/kg/injection, schedule: Q04DX003 (ip), vehicle: saline 109 % of control and 110 % of control | dose: 20.0 mg/kg/injection, schedule: Q04DX003 (ip), vehicle: saline 102 % of control and 116 % of control | dose: 40.0 mg/kg/injection, schedule: Q04DX003 (ip), vehicle: saline 109 % of control and 123 % of control

COc1cc2ccc(CC(=O)NCCc3ccc4c(c3)OCO4)cc2cc1OC
inactive: dose: 100.0 mg/kg/injection, schedule: Q01DX009 (ip), vehicle: Klucel (hydroxypropylcellulose) (HPC) 100 % of control | dose: 200.0 mg/kg/injection, schedule: Q01DX009 (ip), vehicle: Klucel (hydroxypropylcellulose) (HPC) 100 % of control | dose: 400.0 mg/kg/injection, schedule: Q01DX009 (ip), vehicle: Klucel (hydroxypropylcellulose) (HPC) 90 % of control

CCOC(=O)C1=C(C)NC(C)=C(C(=O)OCC)C1c1ccc(OC)c(OC)c1
inactive: dose: 25.0 mg/kg/injection, schedule: Q01DX009 (ip), vehicle: other 106 % of control | dose: 50.0 mg/kg/injection, schedule: Q01DX009 (ip), vehicle: other 103 % of control | dose: 100.0 mg/kg/injection, schedule: Q01DX009 (ip), vehicle: other 97 % of control | dose: 200.0 mg/kg/injection, schedule: Q01DX009 (ip), vehicle: other 97 % of control | dose: 400.0 mg/kg/injection, schedule: Q01DX009 (ip), vehicle: other 88 % of control

CCCCn1c(Cl)c(/C=N\Nc2ccc([N+](=O)[O-])cc2)c2ccccc21
inactive: dose: 25.0 mg/kg/injection, schedule: Q01DX001 (ip), vehicle: saline with Tween-80 86 % of control | [1] 103 % of control and 94 % of control

CCOc1cccs1
inactive: [7] 102 % of control | [8] 100 % of control

Cc1cccc(OCC(O)CN2CC2)c1 (configuration not stated)
inactive: [1] 112 % of control | [2] 120 % of control | [3] 103 % of control

Cc1ccc(S(=O)(=O)N/N=C/c2ccoc2)cc1
inactive: dose: 12.5 mg/kg/injection, schedule: Q01DX005 (ip), vehicle: distilled water + Tween-80 100 % of control | dose: 25.0 mg/kg/injection, schedule: Q01DX005 (ip), vehicle: distilled water + Tween-80 102 % of control | dose: 50.0 mg/kg/injection, schedule: Q01DX005 (ip), vehicle: distilled water + Tween-80 93 % of control | dose: 100.0 mg/kg/injection, schedule: Q01DX005 (ip), vehicle: distilled water + Tween-80 102 % of control | dose: 200.0 mg/kg/injection, schedule: Q01DX005 (ip), vehicle: distilled water + Tween-80 100 % of control

O=C(Nc1ccc(Cl)c(Cl)c1Cl)/C(Cl)=C1/Sc2ccccc2NC1=O
inactive: [4] 108 % of control | [5] 101 % of control | [6] 101 % of control

COC(=O)/C=C1\C=CC(=O)OC1O (configuration not stated)
inactive: dose: 6.25 mg/kg/injection, schedule: Q01DX005 (ip), vehicle: Klucel (hydroxypropylcellulose) (HPC) 102 % of control | dose: 12.5 mg/kg/injection, schedule: Q01DX005 (ip), vehicle: Klucel (hydroxypropylcellulose) (HPC) 103 % of control | dose: 25.0 mg/kg/injection, schedule: Q01DX005 (ip), vehicle: Klucel (hydroxypropylcellulose) (HPC) 113 % of control

O=C1c2ccccc2-c2c1c1ccccc1c(=O)n2Cc1ccco1
inactive: dose: 0.75 mg/kg/injection, schedule: Q01DX005 (ip), vehicle: saline with Tween-80 100 % of control | dose: 1.5 mg/kg/injection, schedule: Q01DX005 (ip), vehicle: saline with Tween-80 100 % of control | dose: 3.0 mg/kg/injection, schedule: Q01DX005 (ip), vehicle: saline with Tween-80 103 % of control

COc1c2occc2c(CSC(=N)N)c2ccc(=O)oc12
inactive: dose: 25.0 mg/kg/injection, schedule: Q01DX001 (ip), vehicle: saline 105 % of control | dose: 50.0 mg/kg/injection, schedule: Q01DX001 (ip), vehicle: saline 100 % of control | dose: 100.0 mg/kg/injection, schedule: Q01DX001 (ip), vehicle: saline 100 % of control
